Data reported in ChEMBL document CHEMBL1201862, “PubChem BioAssay data set” (2004).
Active and inactive are the calls of the source.

Experiments:
HEK293 = assay: EBV LMP1 TES2 canonical NF-kB signalling blockers – cell-based, HEK293, luciferase, cherry-pick, dose response (AID 588343); type: functional; conditions: Homo sapiens
[1] = target: Dual specificity tyrosine-phosphorylation-regulated kinase 1A (Rattus norvegicus, UniProt Q63470); type: biochemical, Homo sapiens
Cytochrome P450 2C9 = Cytochrome P450 2C9 (Homo sapiens, UniProt P11712)
Chain of Cytochrome P450 2C9 (P11712 whole entry): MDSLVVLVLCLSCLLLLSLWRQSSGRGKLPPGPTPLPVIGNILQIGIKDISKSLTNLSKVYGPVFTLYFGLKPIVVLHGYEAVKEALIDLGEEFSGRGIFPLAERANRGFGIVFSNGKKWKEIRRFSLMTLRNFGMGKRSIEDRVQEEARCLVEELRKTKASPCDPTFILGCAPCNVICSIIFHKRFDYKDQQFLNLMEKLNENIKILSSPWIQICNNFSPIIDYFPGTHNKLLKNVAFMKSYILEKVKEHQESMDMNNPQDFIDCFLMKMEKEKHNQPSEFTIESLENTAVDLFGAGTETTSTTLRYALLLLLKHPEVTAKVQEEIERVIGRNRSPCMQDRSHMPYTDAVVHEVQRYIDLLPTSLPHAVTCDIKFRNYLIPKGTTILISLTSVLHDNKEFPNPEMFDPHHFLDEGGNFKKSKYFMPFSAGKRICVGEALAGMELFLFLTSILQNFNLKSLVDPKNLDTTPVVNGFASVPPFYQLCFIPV

Cytochrome P450 1A2 = target: T1, Cytochrome P450 1A2 (Homo sapiens, UniProt P05177);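 also: PubChem cytochrome P450 panel assay, CYP1A2 panel member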
T1 sequence (P05177 whole entry): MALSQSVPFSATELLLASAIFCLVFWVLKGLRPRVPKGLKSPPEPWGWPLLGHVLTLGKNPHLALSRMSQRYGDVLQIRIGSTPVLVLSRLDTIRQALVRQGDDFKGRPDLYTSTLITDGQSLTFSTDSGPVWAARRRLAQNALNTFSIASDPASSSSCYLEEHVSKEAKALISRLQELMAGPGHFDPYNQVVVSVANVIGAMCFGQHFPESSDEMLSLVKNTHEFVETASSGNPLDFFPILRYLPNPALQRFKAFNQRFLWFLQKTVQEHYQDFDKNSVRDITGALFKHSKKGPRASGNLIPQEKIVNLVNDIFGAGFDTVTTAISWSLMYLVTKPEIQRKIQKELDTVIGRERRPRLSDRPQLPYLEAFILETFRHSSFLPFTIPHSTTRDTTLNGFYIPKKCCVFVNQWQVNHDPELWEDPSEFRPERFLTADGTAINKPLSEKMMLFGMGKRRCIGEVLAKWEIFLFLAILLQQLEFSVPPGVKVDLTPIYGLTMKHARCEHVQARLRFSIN

Phospholipase A2 = Phospholipase A2 (Homo sapiens, UniProt P04054); type: functional;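 also: confirmatory dose-response counterscreen on phospholipase A2, testing hits that came from an ultra-high-throughput screen for ATG4B inhibitors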
Chain of Phospholipase A2 (P04054 whole entry): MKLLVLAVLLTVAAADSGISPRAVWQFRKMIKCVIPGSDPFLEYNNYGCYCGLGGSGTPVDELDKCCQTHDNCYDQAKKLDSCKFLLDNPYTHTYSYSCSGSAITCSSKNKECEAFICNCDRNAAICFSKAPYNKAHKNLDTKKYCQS

Cysteine protease ATG4B = target: T2, Cysteine protease ATG4B (Homo sapiens, UniProt Q9Y4P1); type: functional;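 also: Fluorescence-based dose-response confirmation assay measuring inhibition of ATG4B activity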
T2 sequence (Q9Y4P1 whole entry): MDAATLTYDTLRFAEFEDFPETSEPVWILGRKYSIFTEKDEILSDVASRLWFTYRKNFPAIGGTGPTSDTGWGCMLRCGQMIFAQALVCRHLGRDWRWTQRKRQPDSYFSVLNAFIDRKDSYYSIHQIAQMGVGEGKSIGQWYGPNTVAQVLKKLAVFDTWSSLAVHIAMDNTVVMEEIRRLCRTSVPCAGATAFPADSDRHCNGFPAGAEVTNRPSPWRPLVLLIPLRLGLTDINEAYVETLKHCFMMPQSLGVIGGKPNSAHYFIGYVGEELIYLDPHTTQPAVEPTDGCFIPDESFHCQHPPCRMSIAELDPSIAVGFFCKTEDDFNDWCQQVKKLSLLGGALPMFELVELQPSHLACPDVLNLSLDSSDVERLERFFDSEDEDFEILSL

[2] = target: T3, Serine/threonine-protein phosphatase (Candida dubliniensis (strain CD36 / CBS 7987 / NCPF 3949 / NRRLY-17841) (Yeast), UniProt B9W6M3); assay: blockers of CaCl2-induced CDRE-lacZ signaling – S. cerevisiae, luminescence, secondary, dose response (AID 2388); type: functional, cell-based;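 also: yeast reporter cells carrying a calcineurin-responsive lacZ construct stimulated with calcium chloride; luminescent beta-galactosidase reporter signal in whole cells rather than isolated phosphatase activity; potency for inhibition where a drop in reporter signal means calcineurin blockade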
T3 sequence (B9W6M3 whole entry): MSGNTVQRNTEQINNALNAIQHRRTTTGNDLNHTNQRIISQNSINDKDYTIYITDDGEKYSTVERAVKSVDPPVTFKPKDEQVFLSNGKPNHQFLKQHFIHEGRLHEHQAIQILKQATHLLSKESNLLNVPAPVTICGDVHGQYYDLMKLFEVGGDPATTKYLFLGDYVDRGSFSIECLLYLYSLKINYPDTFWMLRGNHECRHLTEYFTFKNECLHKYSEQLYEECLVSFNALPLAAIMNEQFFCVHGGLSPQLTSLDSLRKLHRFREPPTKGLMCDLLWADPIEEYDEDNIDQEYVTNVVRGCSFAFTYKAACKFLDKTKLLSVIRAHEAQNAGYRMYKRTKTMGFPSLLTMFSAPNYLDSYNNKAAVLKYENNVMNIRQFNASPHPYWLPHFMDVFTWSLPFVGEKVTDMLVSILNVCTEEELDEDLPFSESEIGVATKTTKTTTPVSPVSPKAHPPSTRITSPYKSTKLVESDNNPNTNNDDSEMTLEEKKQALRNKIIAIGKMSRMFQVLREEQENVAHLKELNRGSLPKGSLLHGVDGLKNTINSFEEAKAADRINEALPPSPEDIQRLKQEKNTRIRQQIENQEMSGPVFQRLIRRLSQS

[3] = target: ATP-dependent molecular chaperone HSP82 (Candida albicans (strain WO-1) (Yeast), UniProt C4YTQ8); assay: steroid-induced GRE reporter decrease in yeast – S. cerevisiae, luminescence, Hsp90 inhibitor project, dose response (AID 2400); type: functional, cell-based;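 also: beta-galactosidase luminescence from glucocorticoid response element reporter as proxy for Hsp90 function; inhibitor potency where signal loss means Hsp90 inhibition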
Chain of ATP-dependent molecular chaperone HSP82 (C4YTQ8 whole entry): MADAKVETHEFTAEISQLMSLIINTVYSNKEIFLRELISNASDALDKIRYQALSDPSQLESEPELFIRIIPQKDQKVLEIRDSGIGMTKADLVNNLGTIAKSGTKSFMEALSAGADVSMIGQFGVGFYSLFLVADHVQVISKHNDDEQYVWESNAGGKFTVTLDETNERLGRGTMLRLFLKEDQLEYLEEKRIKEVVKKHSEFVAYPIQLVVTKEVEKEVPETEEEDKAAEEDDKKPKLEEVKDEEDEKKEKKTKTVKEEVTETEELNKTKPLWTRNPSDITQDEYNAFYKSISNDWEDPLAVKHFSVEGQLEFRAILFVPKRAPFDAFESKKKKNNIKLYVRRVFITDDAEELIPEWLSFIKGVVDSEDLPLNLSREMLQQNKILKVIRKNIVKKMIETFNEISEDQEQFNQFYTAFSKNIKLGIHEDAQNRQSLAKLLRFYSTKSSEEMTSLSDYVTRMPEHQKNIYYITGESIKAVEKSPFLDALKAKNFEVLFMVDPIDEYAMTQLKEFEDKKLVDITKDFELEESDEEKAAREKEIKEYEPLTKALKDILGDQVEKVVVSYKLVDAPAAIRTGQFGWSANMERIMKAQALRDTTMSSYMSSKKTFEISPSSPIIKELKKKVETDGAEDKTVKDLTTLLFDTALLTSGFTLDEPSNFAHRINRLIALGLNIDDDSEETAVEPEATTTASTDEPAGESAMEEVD

[4] = NIH-3T3 fibroblast cytotoxicity, dose response, cytotoxicity control, cell-based, fluorescence, Alamar Blue, secondary assay (AID 2327); type: functional;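 also: NIH-3T3 mouse fibroblasts cultured with fluconazole at 8 µg/mL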
[5] = fluconazole-exposed Candida albicans growth modulators – fluorescence, retest, confirmation (AID 2467); type: functional, cell-based
[6] = target: T4, Calpain-2 catalytic subunit (Sus scrofa, UniProt P43367); assay: m-calpain protease blockers, concentration series – biochemical, fluorogenic peptide substrate, dose response (AID 1420); type: functional
T4 sequence (P43367 whole entry): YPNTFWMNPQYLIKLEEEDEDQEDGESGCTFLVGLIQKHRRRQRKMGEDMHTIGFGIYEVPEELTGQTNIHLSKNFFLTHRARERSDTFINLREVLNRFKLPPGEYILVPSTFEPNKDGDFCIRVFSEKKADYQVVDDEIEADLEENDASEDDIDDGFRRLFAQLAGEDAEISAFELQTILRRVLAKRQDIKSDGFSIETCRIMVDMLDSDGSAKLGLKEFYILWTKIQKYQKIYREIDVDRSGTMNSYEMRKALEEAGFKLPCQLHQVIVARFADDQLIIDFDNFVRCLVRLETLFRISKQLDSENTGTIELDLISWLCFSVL

[7] = target: FAD-linked sulfhydryl oxidase ALR (Homo sapiens, UniProt P55789); assay: ALR-catalysed DTT oxidation blockers – biochemical, H2O2 detection, luminescence, cherry-pick, dose response (AID 493248)
Chain of FAD-linked sulfhydryl oxidase ALR (P55789 whole entry): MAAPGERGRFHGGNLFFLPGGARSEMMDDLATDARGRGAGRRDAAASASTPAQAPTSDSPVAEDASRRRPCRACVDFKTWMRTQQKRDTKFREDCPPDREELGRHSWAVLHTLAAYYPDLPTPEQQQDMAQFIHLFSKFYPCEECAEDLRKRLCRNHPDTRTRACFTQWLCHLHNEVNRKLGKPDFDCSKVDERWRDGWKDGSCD

[8] = target: T5, COUP transcription factor 2 (Homo sapiens, UniProt P24468); assay: Luminescence-based cell-based high throughput dose response assay to identify inhibitors of COUP-TFII (NR2F2).; type: functional;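 also: HEK293 cells transiently cotransfected with COUP-TFII expression vector and reporter; luciferase reporter luminescence driven by COUP-TFII from the pX2-168 reporter plasmid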
T5 sequence (P24468 whole entry): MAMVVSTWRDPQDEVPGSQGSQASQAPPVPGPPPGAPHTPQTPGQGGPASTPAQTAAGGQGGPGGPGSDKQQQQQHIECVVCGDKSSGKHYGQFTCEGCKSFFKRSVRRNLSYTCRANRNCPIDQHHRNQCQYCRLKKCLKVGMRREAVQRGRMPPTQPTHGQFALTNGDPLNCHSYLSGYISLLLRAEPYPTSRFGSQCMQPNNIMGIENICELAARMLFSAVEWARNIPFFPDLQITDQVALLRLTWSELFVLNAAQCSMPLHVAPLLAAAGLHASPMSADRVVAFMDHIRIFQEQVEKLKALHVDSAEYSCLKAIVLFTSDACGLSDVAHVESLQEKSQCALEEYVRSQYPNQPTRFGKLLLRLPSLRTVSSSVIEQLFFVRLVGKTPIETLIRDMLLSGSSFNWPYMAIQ

INS1 = assay: INS-1E survival protection against cytokine death – cell-based, luminescence, retest, dose response (AID 449756); type: functional; conditions: Rattus norvegicus;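 also: cell death triggered by IL-1 beta plus TNF-alpha plus IFN-gamma mixture; protective hits raise ATP signal compared with cytokine alone wells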
Protein Wnt-3a = Protein Wnt-3a (Mus musculus, UniProt P27467); assay: antagonism of Wnt3a pathway luciferase reporter – Wnt-LIGHT cells, luminescence, selectivity assay for Gli-SUFU antagonist project, dose response (AID 651570); type: functional; conditions: read-out: IC50_Mean;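 also: Wnt-LIGHT reporter cells stimulated with conditioned medium from Wnt3a-producing cells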
Chain of Protein Wnt-3a (P27467 whole entry): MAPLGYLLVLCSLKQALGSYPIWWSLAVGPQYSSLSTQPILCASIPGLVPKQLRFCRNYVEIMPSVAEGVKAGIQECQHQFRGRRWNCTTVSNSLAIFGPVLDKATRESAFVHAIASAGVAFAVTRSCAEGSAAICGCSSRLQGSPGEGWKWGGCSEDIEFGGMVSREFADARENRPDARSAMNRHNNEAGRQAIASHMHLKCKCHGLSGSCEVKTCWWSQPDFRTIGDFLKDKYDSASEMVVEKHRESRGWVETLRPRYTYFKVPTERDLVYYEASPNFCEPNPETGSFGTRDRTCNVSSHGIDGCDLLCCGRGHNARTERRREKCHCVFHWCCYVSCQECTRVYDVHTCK

Vero = assay: cells; type: functional; conditions: Chlorocebus sabaeus
[9] = target: T6, Microphthalmia-associated transcription factor (Homo sapiens, UniProt O75030); assay: reducers of TRPM1 reporter luminescence, concentration series – cell-based, SK-MEL-5, cherry-picked, set 3, MITF inhibitor project, dose response (AID 493073); type: functional;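 also: SK-MEL-5 melanoma cells with luciferase driven by the MITF target TRPM1 promoter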
T6 sequence (O75030 whole entry): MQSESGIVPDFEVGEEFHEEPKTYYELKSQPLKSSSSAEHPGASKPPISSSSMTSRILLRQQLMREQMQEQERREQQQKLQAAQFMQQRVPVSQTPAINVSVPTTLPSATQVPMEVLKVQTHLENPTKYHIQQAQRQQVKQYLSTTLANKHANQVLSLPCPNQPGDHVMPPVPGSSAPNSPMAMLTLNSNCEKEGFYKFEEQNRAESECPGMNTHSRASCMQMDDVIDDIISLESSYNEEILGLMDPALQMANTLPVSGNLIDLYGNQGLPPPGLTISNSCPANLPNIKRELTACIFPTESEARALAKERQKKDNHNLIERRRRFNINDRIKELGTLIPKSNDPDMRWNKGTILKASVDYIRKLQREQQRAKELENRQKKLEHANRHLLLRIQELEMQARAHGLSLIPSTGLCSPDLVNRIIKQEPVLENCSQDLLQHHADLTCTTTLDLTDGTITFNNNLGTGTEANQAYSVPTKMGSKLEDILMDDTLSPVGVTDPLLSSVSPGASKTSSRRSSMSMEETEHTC

[10] = Luminescence Cell-Based Dose Retest to Confirm Inhibitors of Cancer Stem Cells. [Related pubchem assays (depositor defined):AID2717, AID2721]; type: functional; conditions: Homo sapiens
[11] = DRD fibroblast viability loss – cell-based, non-viral oncogenic, luminescence, dose response (AID 1934); type: functional; conditions: Homo sapiens
[12] = HEK-293T viability loss after treatment – luminescence, T-cell screen hits, cytotoxicity control for TCR NF-kB inhibitor project, dose response (AID 489026); type: functional, cell-based;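 also: cells exposed to compound about 14 hours before the viability readout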
BJ [13] = assay: cells; type: functional, cell-based; conditions: Homo sapiens
BJ [14] = assay: BJ-TERT fibroblast viability loss – cell-based, RAS-independent, luminescence, dose response (AID 1933); type: functional; conditions: Homo sapiens
BJ [15] = assay: growth inhibition of engineered Ras-driven BJ cells – cell-based, alamar blue fluorescence, cherrypicked samples, dose response (AID 2631); type: functional; conditions: Homo sapiens;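 also: confirmatory dose-response assay in RAS-dependent BJ fibroblasts engineered with TERT, LT and ST, with cytotoxicity read by fluorescence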
BJ [16] = assay: BJ-TERT-LT-ST fibroblast viability loss – cell-based, RAS-independent, luminescence, dose response (AID 1935); type: functional; conditions: Homo sapiens;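 also: BJ fibroblasts immortalized with TERT plus LT and ST oncogenes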
[17] = NIH3T3 cell viability loss – ATP luminescence, mouse fibroblasts, counter-screen, dose response (AID 2010); type: functional, cell-based;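 also: cells exposed to compound for about 90 hours before reading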
[18] = Trypanosoma cruzi growth suppression in host cells – NIH3T3 host cells, beta-gal luminescence, confirmation (AID 2044); type: functional, cell-based;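 also: intracellular parasites grown in NIH/3T3 mouse fibroblasts as host cells; luminescent beta-galactosidase reporter signal from transgenic T. cruzi replicating inside host cells; inhibitors lower the luminescence signal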
[19] = tested on: Streptococcus sp. 'group A'; assay: Streptococcus pyogenes SK(-)GAS viability under kanamycin – luminescence, BacTiterGlo, confirmation, counter-screen for streptokinase expression inhibitor project, dose response (AID 1900); type: functional, organism-based
Streptococcus = assay: GAS UMAA2166 growth inhibition – luminescence, BacTiterGlo, counter-screen for streptokinase expression inhibitor project, dose response (AID 1915); type: functional, organism-based;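 also: potency for reduction of bacterial viability or growth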

Cc1ccccc1C(=O)c1c[nH]c(C(=O)NCc2ccco2)c1
AC50 (HEK293): 11.2 µM (active)

CCO/C(=C/c1sc2ccc(OC)cc2[n+]1CCCS(=O)(=O)[O-])CC
AC50 [1]: 9.02 µM (active)

CCCN(CCC)CCc1c[nH]c2ccc(C(N)=O)cc12
AC50 (Cytochrome P450 2C9): inconclusive
AC50 (Cytochrome P450 1A2): 15.8 µM (inconclusive)

COCCn1c(C)cc(C(=O)COC(=O)C23CC4CC(CC(O)(C4)C2)C3)c1C
AC50 (HEK293): 7.37 µM (active)

O=C(O)Cc1sc(NC2CCCCC2)nc1-c1ccc(Cl)cc1
IC50 (Phospholipase A2): 8.63 µM (active)
IC50 (Cysteine protease ATG4B): 21 µM (inactive)

CCOC(=O)c1c(-c2ccccc2Cl)cn2ccccc12
EC50 [2]: > 180 µM (inactive)
EC50 [3]: 17.4 µM (active)
EC50 [4]: > 160 µM (inactive)
EC50 [5]: 3.75 µM (active)

COc1cc(/C=C2/SC(=O)NC2=O)ccc1Oc1ccc([N+](=O)[O-])cc1[N+](=O)[O-]
IC50 [6]: 7.36 µM (not active)
AC50 [7]: 0.156 µM (active)
AC50 [1]: 0.992 µM (active)

Cc1sc2ncnc(NCC3COc4ccccc4O3)c2c1C (stereo not given)
IC50 [8]: 3.38 µM (active)
AC50 (INS1): 1.68 µM (active)
IC50 (Protein Wnt-3a): 0.441 µM (active)
AC50 (HEK293): 35.9 µM (active)

O=C(NCc1ccco1)c1nc(O)c2nnn(Cc3ccccc3Cl)c2n1
CC50 (Vero): 18.9 µM (active)
AC50 [9]: 14.4 µM (active)
AC50 [10]: 2.4 µM (active)

C[C@@H]1C=CC(=O)O[C@@H]1c1ccc(Cl)cc1
EC50 [11]: 5.84 µM (active)
IC50 [12]: > 80 µM (inactive)
EC50 (BJ [13]): 23.8 µM (active)
EC50 (BJ [14]): 21.3 µM (active)
EC50 (BJ [15]): 0.547 µM (active)
EC50 (BJ [16]): 16.7 µM (active)

CC1CC(C)CN(C(=O)C2CCN(S(=O)(=O)c3ccc4c(c3)CC(C)N4C(=O)C3CC3)CC2)C1 (stereo not given)
IC50 (Phospholipase A2): 7.55 µM (active)
IC50 (Cysteine protease ATG4B): 14.5 µM (active)

C[n+]1c2n(c3ccccc31)N=C(c1ccc(-c3ccccc3)cc1)CS2
IC50 [8]: 5.03 µM (active)
EC50 [17]: 9.85 µM (active)
EC50 [2]: > 180 µM (inactive)
EC50 [18]: 0.376 µM (active)
EC50 [3]: > 160 µM (inactive)
AC50 (INS1): 1.32 µM (active)
EC50 [4]: > 160 µM (inactive)
EC50 [5]: 0.452 µM (active)
IC50 (Protein Wnt-3a): 0.736 µM (active)

O=C(COc1ccc(Cl)cc1)Nc1ccc(C(=O)NCc2cccnc2)cc1
EC50 [11]: > 150 µM (inconclusive)
AC50 (INS1): < 0.195 µM (active)
EC50 (BJ [13]): 2.87 µM (active)
EC50 (BJ [14]): > 150 µM (not active)
EC50 (BJ [15]): 25.6 µM (active)
EC50 (BJ [16]): 18.8 µM (inconclusive)

COc1ccc(/C=C2/SC(=S)N(CCCC(=O)N3CCN(C)CC3)C2=O)cc1
CC50 (Vero): > 25 µM (active)

Cc1ccc(C)c(OCC(=O)OCc2csc(CC(=O)Nc3ccccc3C)n2)c1
CC50 (Vero): > 25 µM (active)

Cc1cc(N/N=C\c2ccc(Br)cc2)nc(-n2nc(C)cc2C)n1
EC50 [19]: 1.01 µM (active)
EC50 (Streptococcus): 3.74 µM (active)
AC50 (INS1): 2.43 µM (active)
AC50 (HEK293): 3.83 µM (active)
